Assay results reported in US20040086942A1, “Ige receptor antagonists” (priority 2003, published 2004).
Entries after “also recorded” stand apart in the source; their conditions may differ. Where two headings read alike, the source gives them in different places. Where a SMILES comes first, the peptide text is derived from it. Bridges are numbered along the chain shown (N, C = ends). Roman numbers before positions name the chains, in order. Where no end group is shown, it is not given here.

What was measured:
FcεRI = target: T1, FcεRI (Homo sapiens, UniProt P12319); assay: competitive phage ELISA on baculovirus-derived FcεRI; format: binding; conditions: for relative binding affinity (in words): compared with the parent
T1 construct: human FcεRI(aa 1-176) was expressed using a baculovirus secretion expression system; host or cells: Hi-5 insect cells infected with baculovirus (virus produced in Sf9; transfer vector pAcGP67)
T1 sequence (P12319 26-201): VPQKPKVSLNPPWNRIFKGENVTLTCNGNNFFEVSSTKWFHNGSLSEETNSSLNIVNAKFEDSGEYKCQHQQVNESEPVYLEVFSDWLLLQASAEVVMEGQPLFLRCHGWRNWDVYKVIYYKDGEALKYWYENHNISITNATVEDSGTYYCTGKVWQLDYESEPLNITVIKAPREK
Source text: The extracellular domain of the alpha subunit of the human FcεRI(aa 1-176) was expressed using a baculovirus secretion expression system (Pharminten). cDNA encoding this domain was obtained through PCR of a plasmid containing a full length clone. The DNA fragment was ligated into baculovirus tranfer vector pAcGP67 and along with BaculoGold linearized baculovirus DNA was transfected into Sf9 cells Spodoptera frugiperda insect cells for baculovirus production (Pharmingen). Soluble FcεRI was affinity purified from the growth media of baculovirus infected Hi-5 insect cells (Expression Systems).
Phage ELISA assays were carried out as described (Lowman, 1998, supra), using Nunc Maxisorp™ plates coated with a 2 μg/mL solution of baculovirus-derived FcεRI. Peptide-phage were pre-incubated for 5-10 min with serial dilutions of receptor, then added to the receptor-coated plate. After incubation for 1 h at room temperature, the plates were washed and an anti-phage HRP-conjugated antibody (Pharmacia) was added. After further incubation for 20 min, plates were again washed and developed using the substrate OPD (Sigma). Optical density at 492 nm was read and plotted as a function of FcεRI concentration to determine an IC50 of inhibition by each peptide-phage variant.
A phage-based alanine scanning approach was used to map the FcεRI binding determinants of IGE134 (SEQ ID NOS:155, 171), as described above for IGE120 (SEQ ID NO:131, 159). […] Additionally, combinations of Ala mutations, deletions, and other substitutions were tested.

[1] = target: T2, alpha subunit of the human FcεRI receptor (Homo sapiens, UniProt P12319); assay: cell-based 125I-IgE binding inhibition assay on CHO FcεRI+ cells
T2 construct: expressed in transfected cells; host or cells: Chinese hamster ovary (CHO FcεRI+) cells
T2 sequence (P12319 26-257): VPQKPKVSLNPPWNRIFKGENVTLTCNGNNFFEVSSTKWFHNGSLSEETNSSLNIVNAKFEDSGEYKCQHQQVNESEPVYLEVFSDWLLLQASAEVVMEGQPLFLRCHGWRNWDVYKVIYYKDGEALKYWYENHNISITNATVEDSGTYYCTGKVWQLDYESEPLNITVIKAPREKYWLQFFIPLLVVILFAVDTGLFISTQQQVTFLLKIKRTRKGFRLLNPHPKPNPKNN
How it was run: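 Peptides, serially diluted 1:3 from 50-500 uM, preincubated 1 h at room temperature on CHO cells expressing human FcεRI alpha, then 1.5 nM 125I-IgE added for 45-60 min at 4 °C. Buffer F12/DMEM, 1% BSA, 0.05% NaN3, pH 7.2. Bound counts by gamma counting; IC50 from 4-parameter fits.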

[2] = 2D NMR structural score versus reference peptide; format: physicochemical; set-up: key to Structure Score: +++, peptide structurally similar to reference; +, structurally similar to reference but significantly less stable; +/−, peptide has some elements of stable structure, but the conformation differs from the reference structure; −, peptide is predominantly unstructured; *peptide IGE037 (SEQ ID NO:128) was initially unstructured (monomeric form), but became structured after spontaneous dimer formation; conditions: reference IGE134
How it was run: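 Backbone ¹H resonances assigned by 2D NMR and ³JHN-Hα coupling constants measured against a reference peptide. Structure scored similar when chemical shifts, coupling constants and NOEs are consistent with the reference structure.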

[3] = disulfide reshuffling of monomer peptide to homodimer in solution; format: physicochemical; conditions: in water or buffer at neutral pH
Source text: This change occurs slowly, over a 3-12 day period following the solubilization of the peptide in water or buffer at neutral pH. […] Additional support for the occurrence of a change came from NMR data detecting a change in the one-dimensional NMR spectrum. Also HPLC reverse phase data indicated a change in retention time that correlated with the activity and the conversion of a monomer to a dimer. Final confirmation of the formation of an active dimer followed the syntheses of both parallel (IGE088, SEQ ID NO:128, 128) and anti-parallel (IGE089, SEQ ID NOS:128, 157) […] disulfide-linked dimer peptides. Both peptide forms were assayed for activity in inhibiting I^125-IgE binding to cell surface expressed FcεRI.

RBL-48 cells = target: T3, RBL-48 cells (Homo sapiens, UniProt P12319); assay: histamine release assay: induction of histamine release by peptide; conditions: peptide 0.5 mM on RBL-48 cells
T3 sequence (P12319 26-257): T2 sequence (P12319 26-257)
Method: Peptides were assayed in a histamine release assay (Lowe et al., (1995) J. Immunol. Methods, 184:113-122) to determine: (1) if the peptides could trigger histamine release and (2) if the peptides could prevent histamine release in the presence of ragweed and ragweed specific IgE. Rat basophil cell line RBL-48, which expresses the human FcεRI alpha subunit was cultured overnight in Falcon 96 flat well microtiter dishes. The cells were washed three times with growth media and then incubated in Iscove's MEM medium containing 10% fetal bovine serum and 3 USP units per milliliter of heparin (histamine assay buffer).

FcεRIα = target: T4, FcεRIα (Homo sapiens, UniProt P12319); assay: surface plasmon resonance biosensor direct-binding assay; conditions: for EC50: midpoint of 4-parameter fit to peptide saturation curve, immobilized receptor, read-out: Binding affinity: EC50 (uM) ± s.d.
T4 construct: human FcεRI(aa 1-176) was expressed using a baculovirus secretion expression system; host or cells: Hi-5 insect cells infected with baculovirus (virus produced in Sf9; transfer vector pAcGP67)
T4 sequence (P12319 26-201): T1 sequence (P12319 26-201)
Method: Several peptides were also tested in a direct-binding assay using a surface plasmon resonance biosensor (Lofas & Johnsson, J. Chem. Soc. Commun. 21, 1526-1528 (1990)). FcεRIα, produced in baculovirus infected insect cells, was immobilized by the surface thiol method (BIAcore Methods Manual Supplement 5a, BIAcore, Inc., Piscataway, N.J.). Briefly, receptor was reacted with 2-(2pyridinyldithio)ethaneamine hydrochloride (PDEA; Natake & Swaisgood, J. Biochem. 74, 77-86 (1973)), desalted into 10 mM sodium acetate (pH 4.8) and stored in aliquots at −80″C. Thawed PDEA-receptor was injected over carboxymethyl-dextran (B1 or CM5, BIAcore, Inc.) biosensor chips preactivated with N-ethyl-N′-(3-dimethylaminopropyl)-carbodiimide hydrochloride (EDC) and N-hydroxysuccinimide (NHS), cystamine, and DTT. Following coupling, reactive groups on the chip were quenched with […] and ethanolarine. Serial dilutions of peptide in running buffer (phosphate-buffered saline containing 0.05% Tween-20, 0.01% sodium azide) were injected over the immobilized receptor, and the net amount of peptide bound at steady-state was measured as the net change in response (RU) at a point just prior to termination of peptide injection, compared to a running-buffer baseline. Binding affinities (Table 10) are reported as the midpoint (EC50) of a 4-parameter fit to the peptide saturation curve.

[4] = solubility in assay/binding buffer; format: physicochemical; conditions: assay buffer of the IgE binding inhibition assay
[5] = IgE-inhibition activity of synthetic peptides, read-out: Inhibition activity: C+hd 50 +l (uM) ± s.d.

IVCPRLCYELDYELCPDVCYV
fold improved affinity over IGE120 (FcεRI; clone from IGE120-phage library): about 2 fold

CC(C)C[C@H](NC(=O)[C@H](C)N)C(=O)N[C@H]1CSSC[C@@H](C(=O)N[C@@H](Cc2ccc(O)cc2)C(=O)N[C@H](C(N)=O)C(C)C)NC(=O)[C@H](C(C)C)NC(=O)[C@H](C)NC(=O)[C@@H]2CCCN2C1=O [IGE037, ALCPAVCYV-nh2] (H-ALCPAVCYV-NH2; disulfide 3-7; N-terminus assumed)
IC50 ([1]; IGE037: initially, read-out: IC50): ~300 µM | Structure Score [2]: +++* | period of conversion of monomer to disulfide linked homodimer [3]: 3 to 12 days

IVCPRLCYVGGKALCPDVCAV [SEQ ID NO:143]
fold reduction in binding affinity compared to IGE120 (FcεRI; IGE120-phage alanine scan): No detectable binding

PRCTEGPWGWVCM (disulfide 3-12 (inferred); not fully specified (C-terminus))
levels of histamine released (RBL-48 cells): equivalent to that of the negative control

CC(C)C[C@H](NC(=O)[C@H](C)N)C(=O)N[C@H]1CSSC[C@@H](C(=O)N[C@@H](Cc2ccc(O)cc2)C(=O)N[C@H](C(N)=O)C(C)C)NC(=O)[C@H](C(C)C)NC(=O)[C@H](C)NC(=O)[C@@H]2CCCN2C(=O)[C@@H](NC(=O)[C@H](CC(C)C)NC(=O)[C@H](C)N)CSSC[C@@H](C(=O)N[C@@H](Cc2ccc(O)cc2)C(=O)N[C@H](C(N)=O)C(C)C)NC(=O)[C@H](C(C)C)NC(=O)[C@H](C)NC(=O)[C@@H]2CCCN2C1=O [IGE089] (I: H-ALCPAVCYV-NH2 / II: H-ALCPAVCYV-NH2; disulfide I:3-II:7, I:7-II:3)
inhibiting 125I-IgE binding to cell surface expressed FcεRI (in words) [1]: Significant inhibitory activity | IC50 [1, 5]: 64 µM | Structure Score [2]: +++ | EC50 (FcεRIα): 64 µM

CC(C)C[C@H](NC(=O)[C@H](C)N)C(=O)N[C@H]1CSSC[C@H](NC(=O)[C@H](CC(C)C)NC(=O)[C@H](C)N)C(=O)N2CCC[C@H]2C(=O)N[C@@H](C)C(=O)N[C@@H](C(C)C)C(=O)N[C@H](C(=O)N[C@@H](Cc2ccc(O)cc2)C(=O)N[C@H](C(N)=O)C(C)C)CSSC[C@@H](C(=O)N[C@@H](Cc2ccc(O)cc2)C(=O)N[C@H](C(N)=O)C(C)C)NC(=O)[C@H](C(C)C)NC(=O)[C@H](C)NC(=O)[C@@H]2CCCN2C1=O [IGE088, ALCPAVCYV-nh2] (I: H-ALCPAVCYV-NH2 / II: H-ALCPAVCYV-NH2; disulfide I:3-II:3, I:7-II:7; N-terminus assumed)
IC50 [1, 5]: > 450 µM | Structure Score [2]: +/− | EC50 (FcεRIα): > 450 µM

CSCC[C@H](NC(=O)[C@@H]1CSSC[C@H](NC(=O)[C@@H](NC(=O)[C@H](C)NC(=O)[C@H](CCC(=O)O)NC(=O)[C@H](C)N)[C@@H](C)O)C(=O)N[C@@H]([C@@H](C)O)C(=O)N[C@@H](CCC(=O)O)C(=O)NCC(=O)N2CCC[C@H]2C(=O)N[C@@H](Cc2c[nH]c3ccccc23)C(=O)NCC(=O)N[C@@H](Cc2c[nH]c3ccccc23)C(=O)N[C@@H](C(C)C)C(=O)N1)C(=O)N[C@@H](C)C(=O)N[C@@H](C)C(=O)N[C@@H](CC(=O)O)C(=O)O [AEATCTEGPWGWVCMAAD] (H-AEATCTEGPWGWVCMAAD-OH; disulfide 5-14)
solubility in the assay/binding buffer [4]: not soluble; also recorded: insoluble

VQCPHFCYVGGKALCPDVCYV
relative binding affinity (in words) (FcεRI): improved binding affinity

CC(C)C[C@@H]1NC(=O)[C@H](CCC(=O)O)NC(=O)[C@H](Cc2ccc(O)cc2)NC(=O)[C@@H]2CSSC[C@H](NC(=O)[C@H](CC(C)C)NC(=O)[C@H](CCC(=O)O)NC(=O)[C@H](Cc3ccc(O)cc3)NC(=O)[C@H](CC(=O)O)NC1=O)C(=O)N1CCC[C@H]1C(=O)N[C@@H](CC(=O)O)C(=O)N[C@@H](C(C)C)C(=O)N[C@H](C(=O)N[C@@H](Cc1ccc(O)cc1)C(=O)N[C@H](C(N)=O)C(C)C)CSSC[C@H](NC(=O)[C@H](CCC(N)=O)NC(=O)[C@@H](N)C(C)C)C(=O)N1CCC[C@H]1C(=O)N[C@@H](Cc1c[nH]cn1)C(=O)N[C@@H](Cc1ccccc1)C(=O)N2 [IGE134] (H-VQCPHFCYELDYELCPDVCYV-NH2; disulfide 3-19, 7-15; N-terminus assumed)
IC50 ([1]; average IC50, inhibition assay (Table 9)): 0.032 µM | Structure Score [2]: +++ | relative binding affinity (in words) (FcεRI): improved affinity over IGE122 | Kd (FcεRIα): 0.032 µM

IVCPRLCYVGGKALCPDVCYV [SEQ ID NO:131]
relative binding affinity (in words) (FcεRI): improved binding affinity

CC(C)[C@H](N)C(=O)N[C@@H](CCC(N)=O)C(=O)N[C@H]1CSSC[C@@H](C(=O)N[C@@H](Cc2ccc(O)cc2)C(=O)N[C@H](C(N)=O)C(C)C)NC(=O)[C@H](Cc2ccccc2)NC(=O)[C@H](Cc2c[nH]cn2)NC(=O)[C@@H]2CCCN2C1=O [IGE129, VQCPHFCYV-nh2] (H-VQCPHFCYV-NH2; disulfide 3-7)
EC50 (FcεRIα): > 90 µM
